Data: PubChem BioAssay (NCI)
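Protocol summary: plate cells (96-well), add compound at 5 concentrations, incubate 48 h, interpolate endpoints linearly. The concentration for 50% growth inhibition is given as GI50. TGI denotes the concentration required for complete inhibition of growth.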

Columns and labels:
Test in all cases: DTP human tumour cell line panel, 48 h
OVCAR-4 ovarian = tested on: OVCAR-4 ovarian
SK-MEL-28 melanoma = tested on: SK-MEL-28 melanoma
SNB-75 CNS = tested on: SNB-75 CNS
NCI-H226 lung = tested on: NCI-H226 lung
ACHN renal = tested on: ACHN renal
SW-620 colon = tested on: SW-620 colon
RXF 393 renal = tested on: RXF 393 renal
OVCAR-5 ovarian = tested on: OVCAR-5 ovarian
A549 NSCLC = tested on: A549 NSCLC
PC-3 prostate = tested on: PC-3 prostate
HCT-15 colon = tested on: HCT-15 colon
HOP-92 NSCLC = tested on: HOP-92 NSCLC
EKVX NSCLC = tested on: EKVX NSCLC
A498 renal = tested on: A498 renal
TK-10 renal = tested on: TK-10 renal
BT-549 breast = tested on: BT-549 breast
SK-OV-3 ovarian = tested on: SK-OV-3 ovarian
DU-145 prostate = tested on: DU-145 prostate
NCI-H460 lung = tested on: NCI-H460 lung
OVCAR-3 ovarian = tested on: OVCAR-3 ovarian
KM12 colon = tested on: KM12 colon
SK-MEL-5 melanoma = tested on: SK-MEL-5 melanoma
786-0 renal = tested on: 786-0 renal
HT29 colon = tested on: HT29 colon
MDA-MB-435 = tested on: MDA-MB-435
UO-31 renal = tested on: UO-31 renal
NCI-H23 lung = tested on: NCI-H23 lung
K-562 leukemia = tested on: K-562 leukemia
LOX IMVI melanoma = tested on: LOX IMVI melanoma
OVCAR-8 ovarian = tested on: OVCAR-8 ovarian
IGROV1 ovarian = tested on: IGROV1 ovarian
HL-60(TB) leukemia = tested on: HL-60(TB) leukemia
MDA-MB-231 breast = tested on: MDA-MB-231 breast
MCF7 breast = tested on: MCF7 breast
UACC-62 melanoma = tested on: UACC-62 melanoma
RPMI-8226 leukemia = tested on: RPMI-8226 leukemia
CAKI-1 renal = tested on: CAKI-1 renal
NCI-H522 lung = tested on: NCI-H522 lung
COLO 205 colon = tested on: COLO 205 colon
SK-MEL-2 melanoma = tested on: SK-MEL-2 melanoma
SF-539 CNS = tested on: SF-539 CNS
HOP-62 NSCLC = tested on: HOP-62 NSCLC
M14 melanoma = tested on: M14 melanoma
HS 578T breast = tested on: HS 578T breast
SNB-19 CNS = tested on: SNB-19 CNS
MOLT-4 leukemia = tested on: MOLT-4 leukemia
SN12C renal = tested on: SN12C renal
SF-295 CNS = tested on: SF-295 CNS
NCI/ADR-RES ovarian = tested on: NCI/ADR-RES ovarian
CCRF-CEM leukemia = tested on: CCRF-CEM leukemia
U251 CNS = tested on: U251 CNS
SF-268 CNS = tested on: SF-268 CNS
T-47D breast = tested on: T-47D breast
UACC-257 melanoma = tested on: UACC-257 melanoma
HCT-116 colon = tested on: HCT-116 colon

COc1ccc2c(c1)c(-c1nc(-c3cn(C)c4ncccc34)cs1)cn2CCCCN1CCCCC1
GI50 (OVCAR-4 ovarian): 1.83 µM | TGI (OVCAR-4 ovarian): 3.39 µM | GI50 (SK-MEL-28 melanoma): 1.74 µM | TGI (SK-MEL-28 melanoma): 3.16 µM | GI50 (SNB-75 CNS): 1.07 µM | TGI (SNB-75 CNS): 2.28 µM | GI50 (NCI-H226 lung): 1.52 µM | TGI (NCI-H226 lung): 3.11 µM | GI50 (ACHN renal): 1.65 µM | TGI (ACHN renal): 3 µM | GI50 (SW-620 colon): 1.62 µM | TGI (SW-620 colon): 2.99 µM | GI50 (RXF 393 renal): 1.33 µM | TGI (RXF 393 renal): 2.82 µM | GI50 (OVCAR-5 ovarian): 1.65 µM | TGI (OVCAR-5 ovarian): 3.08 µM | GI50 (A549 NSCLC): 1.74 µM | TGI (A549 NSCLC): 3.21 µM | GI50 (PC-3 prostate): 1.61 µM | TGI (PC-3 prostate): 3 µM | GI50 (HCT-15 colon): 1.45 µM | TGI (HCT-15 colon): 2.8 µM | GI50 (HOP-92 NSCLC): 1.38 µM | TGI (HOP-92 NSCLC): 2.76 µM | GI50 (EKVX NSCLC): 1.66 µM | TGI (EKVX NSCLC): 3.18 µM | GI50 (A498 renal): 1.66 µM | TGI (A498 renal): 3.11 µM | GI50 (TK-10 renal): 1.53 µM | TGI (TK-10 renal): 2.95 µM | GI50 (BT-549 breast): 1.64 µM | TGI (BT-549 breast): 3.05 µM | GI50 (SK-OV-3 ovarian): 1.71 µM | TGI (SK-OV-3 ovarian): 3.15 µM | GI50 (DU-145 prostate): 1.74 µM | TGI (DU-145 prostate): 3.12 µM | GI50 (NCI-H460 lung): 1.68 µM | TGI (NCI-H460 lung): 3.2 µM | GI50 (OVCAR-3 ovarian): 1.7 µM | TGI (OVCAR-3 ovarian): 3.15 µM | GI50 (KM12 colon): 1.7 µM | TGI (KM12 colon): 3.15 µM | GI50 (SK-MEL-5 melanoma): 1.71 µM | TGI (SK-MEL-5 melanoma): 3.08 µM | GI50 (786-0 renal): 1.61 µM | TGI (786-0 renal): 3.06 µM | GI50 (HT29 colon): 1.59 µM | TGI (HT29 colon): 3.03 µM | GI50 (MDA-MB-435): 1.66 µM | TGI (MDA-MB-435): 3.04 µM | GI50 (UO-31 renal): 1.43 µM | TGI (UO-31 renal): 2.77 µM | GI50 (NCI-H23 lung): 1.75 µM | TGI (NCI-H23 lung): 3.28 µM

C/C(=C\COP(=O)(O)CP(=O)(O)O)CC/C=C(\C)CNc1ccccc1
TGI (K-562 leukemia): > 100 µM | TGI (LOX IMVI melanoma): > 100 µM | TGI (OVCAR-8 ovarian): > 100 µM | TGI (IGROV1 ovarian): > 100 µM | TGI (HL-60(TB) leukemia): > 100 µM | TGI (MDA-MB-231 breast): > 100 µM | TGI (MCF7 breast): > 100 µM | TGI (SK-MEL-28 melanoma): > 100 µM | TGI (SNB-75 CNS): > 100 µM | TGI (UACC-62 melanoma): > 100 µM | TGI (NCI-H226 lung): > 100 µM | TGI (ACHN renal): > 100 µM | TGI (SW-620 colon): > 100 µM | TGI (RXF 393 renal): > 100 µM | TGI (OVCAR-5 ovarian): > 100 µM | TGI (RPMI-8226 leukemia): > 100 µM | TGI (CAKI-1 renal): > 100 µM | TGI (A549 NSCLC): > 100 µM | TGI (PC-3 prostate): > 100 µM | TGI (NCI-H522 lung): > 100 µM | TGI (HCT-15 colon): > 100 µM | TGI (EKVX NSCLC): 30.3 µM | TGI (COLO 205 colon): > 100 µM | TGI (SK-MEL-2 melanoma): > 100 µM | TGI (SF-539 CNS): > 100 µM | TGI (TK-10 renal): > 100 µM | TGI (BT-549 breast): > 100 µM | TGI (HOP-62 NSCLC): > 100 µM | TGI (M14 melanoma): > 100 µM | TGI (HS 578T breast): > 100 µM | TGI (SNB-19 CNS): > 100 µM | TGI (MOLT-4 leukemia): > 100 µM | TGI (SK-OV-3 ovarian): > 100 µM | TGI (DU-145 prostate): > 100 µM | TGI (NCI-H460 lung): > 100 µM | TGI (OVCAR-3 ovarian): > 100 µM | TGI (KM12 colon): > 100 µM | TGI (SN12C renal): > 100 µM | TGI (SK-MEL-5 melanoma): > 100 µM | TGI (SF-295 CNS): > 100 µM | TGI (786-0 renal): > 100 µM | TGI (HT29 colon): > 100 µM | TGI (NCI/ADR-RES ovarian): > 100 µM | TGI (CCRF-CEM leukemia): > 100 µM | TGI (MDA-MB-435): > 100 µM | TGI (U251 CNS): > 100 µM | TGI (UO-31 renal): > 100 µM | TGI (SF-268 CNS): > 100 µM | TGI (NCI-H23 lung): > 100 µM | TGI (T-47D breast): > 100 µM | TGI (UACC-257 melanoma): > 100 µM | TGI (HCT-116 colon): > 100 µM
